Results reported in patent publication US12622925B2 (priority 2018, dated 2026).

Test system: Hydra vulgaris
Format: in vivo
Conditions: results in 100% hydra mortality in 92 h
Method: Hydra vulgaris were obtained from Environment Canada (Montreal, Qc) and maintained at 18° C. The hydra classification method (Wilby, O. K., Tesh, J. M., & Shore, P. R., 1990) was used with modification to rate morphology of the adult hydra as an indicator of solution toxicity. In this assay, the scoring of hydra morphology is objective and repeatable with representation in detail in previous literature. The assay included monitoring times at shorter intervals during the first two days (0, 4, 20, and 28 h) and 24 h intervals for the last three days (44, 68, and 92 h). Solutions were not changed during testing. The hydra morphological response was scored and recorded after exposure of toxin with and without sorbent treatment. Mature and non-budding hydra in similar sizes were chosen for testing in order to minimize differences between samples. Controls for this experiment included hydra media. […] The score or average toxicity rating was determined by calculating the average score for morphological changes for a certain group at a specific time point.
FIG. 2 is a depiction of the hydra morphology scale by Wilby (1988): The scale is graded from 0-10, where 10 represents a normal living hydra and 0 represents a disintegrated hydra. The physiologic conditions of hydra were assessed with a dissecting microscope.

SMILES: C[C@H]1CCCC(=O)CCC/C=C/c2cc(O)cc(O)c2C(=O)O1 [ZEN, zearalenone]
- minimal effective concentration (MEC): 4 ppm
